Assay [1] deals with KB cells. In words: Protection from growth inhibition by nucleosides and AICA in KB cells. In kind it is cell-based, human.
Assay [2] relates to FRα. As to conditions: RT16 cells; folic acid = 1; cited from earlier work.
The subject of assay [3] is FRβ. Particulars: D4 cells; folic acid = 1; cited from earlier work.

On to `Nc1nc2sc(CCCCc3ccc(C(=O)N[C@@H](CCC(=O)O)C(=O)O)cc3)cc2c(=O)[nH]1` [Compound 4, N-{4-[4-(2-amino-4-oxo-3,4-dihydrothieno[2,3-d]pyrimidin-6-yl)butyl]benzoyl}-L-glutamic acid], for which the “Growth in the presence of AICA at higher concentrations” value in assay [1] (AICA 320 μM, compound above 100 nM) is given as “still significantly inhibited”. Besides, the “Protection by AICA from toxicity at low and medium concentrations” value in assay [1] (AICA 320 μM, compound ≤ 50 nM) is reported as “almost completely protected”. Besides, the “Protection by adenosine from growth inhibitory effects” value in assay [1] (adenosine 60 μM) was “completely protective”. Besides, the “Effect of thymidine on growth inhibitory effects” value in assay [1] (thymidine 10 μM) is reported as “did not alter”.

On to `Nc1nc2c(c(=O)[nH]1)N(C=O)C(CNc1ccc(C(=O)N[C@@H](CCC(=O)O)C(=O)O)cc1)CN2` (stereo partly drawn) [LCV, (6R,S) 5-formyl tetrahydrofolate], for which the “Relative binding affinity for FRα” value in assay [2] is on record as 0.25-0.45. The “Relative binding affinity for FRβ” value in assay [3] is < 0.01.

Source of the values: article PMC2730022 (Journal of medicinal chemistry, 2009).
